Measurements published in the NIST ThermoML archive (doi:10.1021/je060124c).

Assay: mn = molality of the nth substance listed, in mol/kg
Conditions: Liquid, Capillary tube (Ostwald / Ubbelohde) method

[Cl-].[Li+] [lithium chloride] + O
viscosity [mPa·s]
Conditions	100 kPa	10000 kPa	20000 kPa	40000 kPa
298.15 K, m1 = 0.0473	0.8971	0.8975	0.898	0.899
298.15 K, m1 = 0.1185	0.907	0.9075	0.908	0.909
298.15 K, m1 = 0.4814	0.9559	0.9562	0.957	0.958
298.15 K, m1 = 1.242	1.062	1.062	1.062	1.062
298.15 K, m1 = 2.621	1.289	1.29	1.291	1.292
298.15 K, m1 = 5.897	1.925	1.926	1.927	1.928
298.15 K, m1 = 7.863	2.535	2.536	2.537	2.538
298.15 K, m1 = 10.11	3.426	3.427	3.428	3.429
298.15 K, m1 = 12.7	5.414	5.416	5.418	5.42
298.15 K, m1 = 16.39	9.44	9.443	9.449	9.451
323.15 K, m1 = 0.0473	0.5513	0.5535	0.5551	0.5594
323.15 K, m1 = 0.1185	0.5573	0.5599	0.5618	0.5665
323.15 K, m1 = 0.4814	0.5884	0.5905	0.5927	0.5974
323.15 K, m1 = 1.242	0.6546	0.657	0.66	0.66
323.15 K, m1 = 2.621	0.7967	0.8	0.8028	0.8094
323.15 K, m1 = 5.897	1.206	1.21	1.215	1.224
323.15 K, m1 = 7.863	1.576	1.582	1.588	1.601
323.15 K, m1 = 10.11	2.116	2.123	2.131	2.147
323.15 K, m1 = 12.7	3.121	3.131	3.143	3.167
323.15 K, m1 = 16.39	5.173	5.19	5.209	5.249
348.15 K, m1 = 0.0473	0.381	0.3839	0.387	0.392
348.15 K, m1 = 0.1185	0.3851	0.388	0.391	0.3968
348.15 K, m1 = 0.4814	0.4072	0.4099	0.4128	0.4189
348.15 K, m1 = 1.242	0.4536	0.4575	0.462	0.462
348.15 K, m1 = 2.621	0.5541	0.5583	0.5621	0.5704
348.15 K, m1 = 5.897	0.8423	0.8484	0.8546	0.8667
348.15 K, m1 = 7.863	1.102	1.109	1.117	1.133
348.15 K, m1 = 10.11	1.466	1.476	1.487	1.507
348.15 K, m1 = 12.7	2.075	2.09	2.104	2.134
348.15 K, m1 = 16.39	3.293	3.316	3.339	3.386
370.2 K, m1 = 2.621	0.428	0.4328	0.4367	0.4449
370.4 K, m1 = 7.863	0.8587	0.867	0.8747	0.8907
370.45 K, m1 = 10.11	1.127	1.138	1.148	1.169
370.55 K, m1 = 12.7	1.53	1.544	1.559	1.587
370.7 K, m1 = 5.897	0.6536	0.6594	0.666	0.6781
371.25 K, m1 = 1.242	0.3462	0.3496	0.353	0.353
371.43 K, m1 = 0.4814	0.3099	0.313	0.3159	0.3217
372.06 K, m1 = 0.1185	0.2906	0.2912	0.2961	0.3015
372.33 K, m1 = 0.0473	0.2867	0.2894	0.2921	0.2975
372.4 K, m1 = 16.39	2.308	2.329	2.351	2.394
397.2 K, m1 = 5.897	–	0.5175	0.5233	0.5352
397.25 K, m1 = 12.7	–	1.162	1.175	1.202
397.6 K, m1 = 10.11	–	0.8792	0.8897	0.9092
398.95 K, m1 = 0.0473	–	0.2258	0.228	0.2335
399.2 K, m1 = 16.39	–	1.71	1.73	1.769
399.31 K, m1 = 7.863	–	0.6675	0.6758	0.6916
399.72 K, m1 = 2.621	–	0.3286	0.3327	0.3409
399.74 K, m1 = 0.1185	–	0.2261	0.2292	0.2339
399.75 K, m1 = 0.4814	–	0.24	0.243	0.2483
400.25 K, m1 = 1.242	–	0.2663	0.2696	0.2696
420.32 K, m1 = 0.4814	–	0.2047	0.2074	0.2127
421.03 K, m1 = 0.1185	–	0.1915	0.1941	0.199
421.96 K, m1 = 5.897	–	0.4291	0.435	0.4463
422.4 K, m1 = 1.242	–	0.2248	0.2281	0.2281
422.51 K, m1 = 10.11	–	0.7257	0.7354	0.7544
423.8 K, m1 = 12.7	–	0.9216	0.9345	0.9595
424.5 K, m1 = 16.39	–	1.333	1.351	1.386
424.51 K, m1 = 7.863	–	0.5562	0.564	0.5785
424.52 K, m1 = 0.0473	–	0.1848	0.1879	0.1928
425.84 K, m1 = 2.621	–	0.2701	0.2739	0.2812
446.9 K, m1 = 12.7	–	0.7773	0.7897	0.8123
447.18 K, m1 = 5.897	–	0.3666	0.3725	0.384
448.7 K, m1 = 10.11	–	0.6126	0.622	0.6415
448.75 K, m1 = 0.1185	–	0.1599	0.1628	0.1675
449.16 K, m1 = 0.0473	–	0.1575	0.16	0.1655
449.75 K, m1 = 16.39	–	1.091	1.108	1.141
449.82 K, m1 = 7.863	–	0.4786	0.4862	0.5006
450.7 K, m1 = 1.242	–	0.1876	0.1908	0.1908
450.74 K, m1 = 0.4814	–	0.1681	0.1707	0.1758
452.54 K, m1 = 2.621	–	0.2292	0.2329	0.2399
470.42 K, m1 = 1.242	–	0.1686	0.1717	0.1717
471.5 K, m1 = 5.897	–	0.322	0.3277	0.3385
471.52 K, m1 = 16.39	–	0.9346	0.951	0.982
472.03 K, m1 = 0.1185	–	0.1403	0.143	0.1477
472.3 K, m1 = 7.863	–	0.4267	0.4344	0.4487
472.52 K, m1 = 12.7	–	0.6626	0.6742	0.6964
473.7 K, m1 = 0.4814	–	0.1482	0.1509	0.1559
473.8 K, m1 = 10.11	–	0.5335	0.543	0.562
474.25 K, m1 = 0.0473	–	0.137	0.1394	0.1441
476.22 K, m1 = 2.621	–	0.2026	0.2064	0.2135
494.2 K, m1 = 1.242	–	0.1501	0.1532	0.1532
497.12 K, m1 = 2.621	–	0.1843	0.188	0.1951
497.2 K, m1 = 16.39	–	0.807	0.8237	0.8543
497.3 K, m1 = 0.4814	–	0.1323	0.135	0.1401
497.3 K, m1 = 7.863	–	0.3824	0.3901	0.4047
497.83 K, m1 = 0.0473	–	0.122	0.1245	0.1291
498.45 K, m1 = 0.1185	–	0.1233	0.1256	0.1303
499.3 K, m1 = 5.897	–	0.282	0.288	0.2988
499.52 K, m1 = 10.11	–	0.4719	0.4813	0.5
499.82 K, m1 = 12.7	–	0.5736	0.5853	0.6075
520.61 K, m1 = 1.242	–	0.1336	0.137	0.137
520.7 K, m1 = 7.863	–	0.3496	0.358	0.3733
521.37 K, m1 = 0.1185	–	0.111	0.1137	0.1187
521.42 K, m1 = 0.4814	–	0.119	0.1219	0.1271
522.35 K, m1 = 0.0473	–	0.1093	0.1125	0.1168
522.42 K, m1 = 2.621	–	0.1665	0.1706	0.1781
522.94 K, m1 = 10.11	–	0.4262	0.4365	0.4263
523.03 K, m1 = 12.7	–	0.5136	0.5262	0.5488
523.82 K, m1 = 16.39	–	0.7062	0.722	0.754
524.86 K, m1 = 5.897	–	0.2531	0.26	0.2718
545.92 K, m1 = 1.242	–	0.1203	0.124	0.124
547.5 K, m1 = 0.1185	–	0.0993	0.1018	0.1076
547.82 K, m1 = 16.39	–	0.6309	0.648	0.682
548.75 K, m1 = 0.4814	–	0.106	0.1091	0.1148
548.9 K, m1 = 12.7	–	0.4554	0.4693	0.494
549.25 K, m1 = 0.0473	–	0.0974	0.1009	0.106
549.32 K, m1 = 5.897	–	0.2338	0.2411	0.2537
550.4 K, m1 = 2.621	–	0.1487	0.1533	0.1615
573.1 K, m1 = 0.1185	–	0.0885	0.0922	0.0982
573.7 K, m1 = 5.897	–	0.2138	0.2229	0.239
573.81 K, m1 = 12.7	–	0.4053	0.422	0.449
573.86 K, m1 = 2.621	–	0.1352	0.1409	0.1502
574.03 K, m1 = 0.4814	–	0.0947	0.0986	0.1051
574.1 K, m1 = 0.0473	–	0.0871	0.0907	0.0966
574.21 K, m1 = 1.242	–	0.1064	0.111	0.111
574.23 K, m1 = 16.39	–	0.555	0.576	0.615
